The values below come from publication PMC6668378, “Maturation of coagulation factor IX during Xase formation as deduced using factor VIII‐derived peptides” (FEBS Open Bio, 2019).

Like-named read-outs stand apart in the source and are kept apart here. Square brackets hold non-standard residues; d marks the D form. Ends that are not written are not given here. Peptide text beside a SMILES is read from it. sY = N[C@@H](Cc1ccc(OS(=O)(=O)O)cc1)C(=O)O

In assay [1] the target is T1, FIX‐R170L (Homo sapiens, UniProt P00740, R384L).
T1 construct: made in house; host or cells: Escherichia coli
T1 sequence (P00740 133-461 R384L limits assumed): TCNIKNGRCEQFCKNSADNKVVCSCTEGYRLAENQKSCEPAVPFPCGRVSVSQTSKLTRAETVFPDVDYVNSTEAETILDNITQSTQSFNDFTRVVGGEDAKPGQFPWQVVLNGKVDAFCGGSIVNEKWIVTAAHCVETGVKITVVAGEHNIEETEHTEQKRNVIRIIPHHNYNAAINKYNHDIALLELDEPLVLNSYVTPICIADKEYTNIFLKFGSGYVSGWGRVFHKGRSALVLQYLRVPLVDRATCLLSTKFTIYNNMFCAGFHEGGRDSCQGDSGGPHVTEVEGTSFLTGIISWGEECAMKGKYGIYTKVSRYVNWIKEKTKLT
Description: SAM5 binding of zymogenic FIX-R170L (Padua) to immobilized FVIIIa-derived peptide. The note with it: no additive, FIX-R170L as analyte 10-250 nM, pH 7.5, 5 mM CaCl2. How it is done: (§1) Factor IX protein variants were expressed in Escherichia coli, refolded, purified and activated as described elsewhere 8, 9, 10.
(§2) The factor VIII‐derived peptides Ser558‐Gln565 (SVDQRGNQ) and Lys713‐Arg740 (KHTGDsYsYEDSsYEDISAYLLSKNNAIEPR; sY: sulfotyrosine) were purchased from JPT Peptide Technologies. Quality was controlled by HPLC and mass spectrometry and confirmed to be of better than 90% homogeneity.
(§3) Prior to the chip calibration at 22 °C, the instrument was flushed with a flow rate of 40 μL·min^−1 for 5 to 10 min. Chip calibration was performed using the SAM5 program with gain of 180 and a phase difference of 0.363.
(§4) The SAM5 instrument with a dextran‐COOH‐coated gold chip (NanoTemper Technologies) was equilibrated using filtered and degassed PBS running buffer, and the chip was calibrated as described above. 1‐ethyl‐3‐(3‐dimethylaminopropyl) carbodiimide (EDC) and N‐hydroxysuccinimide (NHS) were dissolved in ddH2O to a final concentration of 400 mM and 100 mM, respectively. To activate the chip, EDC and NHS were mixed at equal volume, resulting in the final concentrations of 200 mM EDC and 50 mM NHS. […]
(§5) Firstly, pumps were washed using filtered and degassed running buffer (20 mM HEPES pH 7.5, 150 mM NaCl, 5 mM CaCl2). […] The sensogram SAM5 data were exported to Origin and TraceDrawer, allowing to analyse and quantify the protein binding affinities, as described in the SAM5 user manual.

The target of assay [2] is T2, FIXa R170L (Homo sapiens, UniProt P00740, R384L).
T2 construct: made in house; host or cells: Escherichia coli
T2 sequence (P00740 227-461 R384L): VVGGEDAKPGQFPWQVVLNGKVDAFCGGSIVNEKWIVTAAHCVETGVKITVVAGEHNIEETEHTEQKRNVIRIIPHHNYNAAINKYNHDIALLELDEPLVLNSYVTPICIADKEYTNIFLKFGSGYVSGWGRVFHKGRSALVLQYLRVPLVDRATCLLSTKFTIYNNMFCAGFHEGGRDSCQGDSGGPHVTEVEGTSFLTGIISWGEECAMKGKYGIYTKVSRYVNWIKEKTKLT
T2 sequence (P00740 47-191 partner limits assumed): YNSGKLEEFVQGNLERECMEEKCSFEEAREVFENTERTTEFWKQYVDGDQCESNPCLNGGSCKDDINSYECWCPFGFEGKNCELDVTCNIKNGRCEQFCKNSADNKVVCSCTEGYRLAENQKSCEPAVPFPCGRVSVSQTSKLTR
Description: SAM5 binding of activated FIXa R170L (Padua) to immobilized FVIIIa-derived peptide. The settings on record: no additive, FIXa R170L as analyte 10-250 nM, pH 7.5, 5 mM CaCl2. How it is done:
as §1, §2, §3, §4, §5

The target of assay [3] is T3, FIX wt (Homo sapiens, UniProt P00740).
T3 construct: made in house; host or cells: Escherichia coli
T3 sequence (P00740 29-461 limits assumed): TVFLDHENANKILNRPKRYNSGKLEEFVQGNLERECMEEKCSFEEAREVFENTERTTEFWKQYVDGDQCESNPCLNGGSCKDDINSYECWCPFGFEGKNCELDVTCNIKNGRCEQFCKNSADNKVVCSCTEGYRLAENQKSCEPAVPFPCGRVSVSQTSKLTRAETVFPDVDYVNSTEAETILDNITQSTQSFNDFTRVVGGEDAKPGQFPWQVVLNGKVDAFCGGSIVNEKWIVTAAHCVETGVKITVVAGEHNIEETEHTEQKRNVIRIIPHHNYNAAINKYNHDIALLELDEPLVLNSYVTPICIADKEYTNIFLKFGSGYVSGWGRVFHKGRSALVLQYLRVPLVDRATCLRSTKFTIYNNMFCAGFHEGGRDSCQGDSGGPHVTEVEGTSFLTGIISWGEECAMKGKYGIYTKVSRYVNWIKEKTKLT
Nature of the assay: SAM5 binding of zymogenic FIX wt to immobilized FVIIIa-derived peptide. The settings on record: no additive; peptide immobilized on carboxymethyl-dextran chip, FIX wt 10-250 nM in mobile phase, 40 μL/min, 4 min association, 4 min dissociation, one-to-one two-state model; 20 mM HEPES pH 7.5, 150 mM NaCl, 5 mM CaCl2. The protocol: as §1, §2, §3, §4
(§6) Firstly, pumps were washed using filtered and degassed running buffer (20 mM HEPES pH 7.5, 150 mM NaCl, 5 mM CaCl2). […] The sensogram SAM5 data were exported to Origin and TraceDrawer, allowing to analyse and quantify the protein binding affinities, as described in the SAM5 user manual. […]

Assay [4] addresses T4, FIXa wt (Homo sapiens, UniProt P00740).
T4 construct: made in house; host or cells: Escherichia coli
Description: SAM5 binding of activated FIXa wt to immobilized FVIIIa-derived peptide. The note with it: no additive, FIXa wt as analyte 10-250 nM, pH 7.5, 5 mM CaCl2. The protocol: as §1, §2, §3, §4, §5

For assay [5], the system named is activation peptide of factor IX and factor X. The note with it: cited from earlier work; for affinity towards activation peptide binding site relative to active site: factor IX and factor X. The text has this:
In the protease factors IX and X, proteolytic activation at Arg180 (FX: Arg194) and Arg145 releases an activation peptide, triggering a conformational disorder‐to‐order transition in the serine protease domain (Figs 2 and S1). The activation peptide is positioned between the light chain (consisting of the N‐terminal Gla, EGF1 and EGF2 domains) and the trypsin‐like serine protease domain. Light and heavy chains remain covalently linked via a disulfide bond. In both factor IX and factor X, the activation peptide harbours an intriguing high‐affinity binding site for benzamidine/arginine, exceedin ...

Assay [6] deals with activated factor VIIIa (FVIIIa). Description: Surface acoustic wave (SAM5) binding of FIX(a) variants to immobilized activated factor VIIIa. The note with it: for Kd: FVIIIa immobilized on dextran chip, SAM5 Blue surface acoustic wave, analyte 10-250 nM, 40 μL/min, 20 mM HEPES pH 7.5, 150 mM NaCl, 5 mM CaCl2, read-out: Kd, interaction with activated factor VIIIa. How it is done:
pro‐FVIII was generously provided by Baxter Biosciences (Vienna, Austria). Human thrombin was purchased from Sigma. For activation, 100 μg FVIII lyophilisate was dissolved in ddH2O and spin‐dialysed by repeated concentration in 30 kDa cut‐off Amicon concentrators to a final concentration of ~ 0.2 mg·mL^−1. FVIII was activated by thrombin similar to protocols described elsewhere 11, 12. Briefly, thrombin was dissolved in 20 mM Hepes, pH 7.5, 100 mM NaCl and 5 mM CaCl2. 1 unit of thrombin was added to 1000 units of FVIII (100 μg) and incubated for 15 min at 37 °C without shaking. The protein mixture was then dialysed by in total four centrifugation steps against a 4 °C cold wash buffer consisting of 50 mM Hepes, pH 7.4, 300 mM NaCl and 2.5 mM CaCl2. The reaction was stopped after the second concentration step by adding 20 μL 50 mM PMSF to inhibit thrombin. The activation of FVIIIa was controlled by SDS/PAGE to observe the A1, A2 and A3‐C1‐C2 at ~55 kDa, 40 kDa and 70 kDa, respectively.
as §3
(§7) The SAM5 instrument with a dextran‐COOH‐coated gold chip (NanoTemper Technologies) was equilibrated using filtered and degassed PBS running buffer, and the chip was calibrated as described above. 1‐ethyl‐3‐(3‐dimethylaminopropyl) carbodiimide (EDC) and N‐hydroxysuccinimide (NHS) were dissolved in ddH2O to a final concentration of 400 mM and 100 mM, respectively. To activate the chip, EDC and NHS were mixed at equal volume, resulting in the final concentrations of 200 mM EDC and 50 mM NHS. The mixture was rapidly placed into position A1 of the tray holder. […]
as §6

The test system of assay [7] is coagulation factor VIII (nonactivated FVIII). Nature of the assay: Surface acoustic wave (SAM5) binding of FIX(a) variants to immobilized factor VIII. How it is done: as §3
as §7, with “holder. If carried out properly, the baseline will increase. Subsequently, the ligand (protein ligands at 250–500 nM concentration, peptidic ligands at 100 μM to 1 mM concentration) was placed into the tray holder at position A1. The binding of the ligand to the dextran matrix is based on electrostatic interactions.” for “holder.”
as §6

T4 sequence (P00740 227-461 limits assumed): as the sequence (P00740 227-461 R384L) above, with L158R counted along it
T4 sequence (P00740 47-191 partner limits assumed): as the sequence (P00740 47-191 partner limits assumed) above

The term Kd denotes a measure of binding affinity in units of concentration. For `CC[C@H](C)[C@H](NC(=O)[C@H](C)NC(=O)[C@H](CC(N)=O)NC(=O)[C@H](CC(N)=O)NC(=O)[C@H](CCCCN)NC(=O)[C@H](CO)NC(=O)[C@H](CC(C)C)NC(=O)[C@H](CC(C)C)NC(=O)[C@H](Cc1ccc(O)cc1)NC(=O)[C@H](C)NC(=O)[C@H](CO)NC(=O)[C@@H](NC(=O)[C@H](CC(=O)O)NC(=O)[C@H](CCC(=O)O)NC(=O)[C@H](Cc1ccc(OS(=O)(=O)O)cc1)NC(=O)[C@H](CO)NC(=O)[C@H](CC(=O)O)NC(=O)[C@H](CCC(=O)O)NC(=O)[C@H](Cc1ccc(OS(=O)(=O)O)cc1)NC(=O)[C@H](Cc1ccc(OS(=O)(=O)O)cc1)NC(=O)[C@H](CC(=O)O)NC(=O)CNC(=O)[C@@H](NC(=O)[C@H](Cc1c[nH]cn1)NC(=O)[C@@H](N)CCCCN)[C@@H](C)O)[C@@H](C)CC)C(=O)N[C@@H](CCC(=O)O)C(=O)N1CCC[C@H]1C(=O)N[C@@H](CCCNC(=N)N)C(=O)O` [a2 peptide, KHTGDsYsYEDSsYEDISAYLLSKNNAIEPR] (H-KHTGD[sY][sY]EDS[sY]EDISAYLLSKNNAIEPR-OH), the equilibrium dissociation constant (Kd) in assay [1] worked out at 0.0528 ± 0.00975 µM; in assay [2], 0.103 ± 0.0166 µM; in assay [3], 0.0658 ± 0.0235 µM; in assay [4], 0.0989 ± 0.0116 µM.

As to `N=C(N)NCCC[C@H](N)C(=O)O` [arginine], in assay [5], the “affinity towards activation peptide binding site relative to active site” value is given as “exceeding the affinity towards the active site by an order of magnitude”.

As for `N=C(N)c1ccccc1` [benzamidine], the “affinity towards activation peptide binding site relative to active site” value in assay [5] is given as “exceeding the affinity towards the active site by an order of magnitude”.

Regarding “FIX wt: recombinant zymogenic factor IX wild-type, expressed in Escherichia coli and refolded”, the Kd in assay [6] (analyte incubated with 1 μM aprotinin (BPTI)) came to 0.0722 ± 0.0602 µM; in assay [6] (analyte incubated with 1 mM benzamidine), 0.0836 ± 0.14 µM; in assay [7] (analyte incubated with 1 μM aprotinin (BPTI), FVIII immobilized on dextran chip, SAM5 Blue surface acoustic wave, analyte 10-250 nM, 40 μL/min, 20 mM HEPES pH 7.5, 150 mM NaCl, 5 mM CaCl2, read-out: Kd, interaction with nonactivated factor VIII) it was 0.0658 ± 0.0212 µM. Further, in assay [6] (in the presence of both benzamidine and BPTI), the “higher affinity of zymogenic FIX wt than FIXa wt for activated factor VIIIa” value is recorded as “confirmed also when activated factor VIIIa was used as a binding partner”. Moreover, in assay [7] (FIX wt versus FIXa wt), the “affinity to cofactor VIII relative to activated FIXa wt” value is listed as “more than 10 fold”.

With SVDQRGNQ [558‐loop, SVDQRGNQ], the dissociation constant Kd in assay [1] was determined as 0.173 ± 0.0571 µM; in assay [2], 0.374 ± 0.138 µM; in assay [3] it was 0.172 ± 0.0376 µM; in assay [4] it was 0.457 ± 0.121 µM.

Take “basic pancreatic trypsin inhibitor [BPTI]”: in assay [5] (factor IX/X, background statement, no reference given), the “binding to activation peptide versus active site” value was “do not bind to the activation peptide but to the active site exclusively”.
